Assay results reported in ChEMBL document CHEMBL2413006, “Acyclic phosph(on)ate inhibitors of Plasmodium falciparum hypoxanthine-guanine-xanthine phosphoribosyltransferase” (Bioorg Med Chem, 2013).

Tests used:
[1] = Inhibition of Plasmodium falciparum HGXPRT assessed as xanthine/guanine conversion to xanthosine-5'-monophosphate/guanosine-5'-monophosphate by spectrophotometry in presence of PRPP
[2] = target: T1, Hypoxanthine-guanine phosphoribosyltransferase (Homo sapiens, UniProt P00492); experiment: Inhibition of human HGPRT using xanthine/PRPP assessed as xanthine/guanine conversion to […]guanosine-5'-monophosphate by spectrophotometry in presence of PRPP
T1 sequence (P00492 whole entry): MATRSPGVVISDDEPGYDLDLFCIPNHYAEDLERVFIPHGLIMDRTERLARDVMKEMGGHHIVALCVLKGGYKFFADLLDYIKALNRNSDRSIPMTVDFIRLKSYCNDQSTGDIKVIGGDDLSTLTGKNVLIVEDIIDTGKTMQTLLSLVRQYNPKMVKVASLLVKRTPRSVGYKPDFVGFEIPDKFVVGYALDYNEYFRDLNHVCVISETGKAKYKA

Structure (SMILES) | Ki [1] | Ki [2]
O=c1[nH]cnc2c(CNC(CO)(CO)COP(=O)(O)O)c[nH]c12 | 15300 nM | > 10000 nM
O=c1[nH]cnc2c(CN[C@H](CO)COP(=O)(O)O)c[nH]c12 | 2.4 nM | > 10000 nM
Nc1nc2c(CN[C@H](CO)COP(=O)(O)O)c[nH]c2c(=O)[nH]1 | 14.3 nM | > 10000 nM
Nc1nc2c(CN[C@@H](CO)COP(=O)(O)O)c[nH]c2c(=O)[nH]1 | 650 nM | > 10000 nM
O=c1[nH]cnc2c(CN[C@H](CO)[C@H](O)COP(=O)(O)O)c[nH]c12 | 980 nM | > 10000 nM
O=c1[nH]cnc2c(CNCCCCP(=O)(O)O)c[nH]c12 | 490 nM | > 10000 nM
O=c1[nH]cnc2c(CNCCCCCP(=O)(O)O)c[nH]c12 | 8600 nM | > 10000 nM
O=c1[nH]cnc2c(CNCCCP(=O)(O)O)n[nH]c12 | 27.6 nM | > 10000 nM
O=c1[nH]cnc2c(CCNCCP(=O)(O)O)c[nH]c12 | 620 nM | > 10000 nM
O=c1[nH]cnc2c(CCNCCCP(=O)(O)O)c[nH]c12 | > 20000 nM | 11300 nM
O=c1[nH]cnc2c(CN[C@H](CO)CCP(=O)(O)O)c[nH]c12 | 0.65 nM | 
O=c1[nH]cnc2c(CN[C@@H](CO)CCP(=O)(O)O)c[nH]c12 | 23.4 nM | 
O=c1[nH]cnc2c(CN[C@H](CO)CC(F)(F)P(=O)(O)O)c[nH]c12 | 87 nM | > 10000 nM
Nc1nc2c(CN[C@H](CO)CC(F)(F)P(=O)(O)O)c[nH]c2c(=O)[nH]1 | 100 nM | > 10000 nM
O=c1[nH]cnc2c(CNCCOP(=O)(O)O)c[nH]c12 | 14400 nM | > 10000 nM
O=c1[nH]cnc2c(CNCP(=O)(O)O)c[nH]c12 | > 20000 nM | > 10000 nM
O=c1[nH]cnc2c(CNCCP(=O)(O)O)c[nH]c12 | 1900 nM | > 10000 nM
O=c1[nH]cnc2c(CNCCCP(=O)(O)O)c[nH]c12 | 10.6 nM | 4900 nM
O=c1[nH]cnc2c(CN[C@H](CO)CC(F)P(=O)(O)O)c[nH]c12 (mixture of isomers) | 1.2 nM | 
O=c1[nH]cnc2c(CNCC(O)CP(=O)(O)O)c[nH]c12 (racemic) | 9.1 nM | > 10000 nM
O=c1[nH]cnc2c(CNCC(CO)CP(=O)(O)O)c[nH]c12 (racemic) | 490 nM | > 10000 nM
O=c1[nH]cnc2c(CNC(CO)COP(=O)(O)O)c[nH]c12 (racemic) | 19 nM | > 10000 nM
O=c1[nH]c(Cl)nc2c(CNC(CO)COP(=O)(O)O)c[nH]c12 (racemic) | 9400 nM | > 10000 nM
